{"source": "patent US7446226B2", "about": "(priority 2003, dated 2008)", "settings_in_all_cases": "in vivo", "key": {"[1]": {"test_system": "sea tulip Balanus improvisus"}, "[2]": {"test_system": "blue mussel Mytilus edulis"}, "[3]": {"test_system": "total growth of marine organisms on the panels"}, "[4]": {"test_system": "growth of marine organisms on the painted surfaces"}}}
{"smiles": "COc1cc(CNC(=O)CCCC/C=C/C(C)C)ccc1O", "note": "[capsaicin, (E)-8-methyl-N-vanillyl-6-nonenamide]", "values": [{"measurement": "Coverage of the sea tulip Balanus improvisus compared with the 2 other treatments", "setting": "[1]", "result": "significantly lower"}, {"measurement": "Reduction in growth measured as coverage of the sea tulip", "setting": "[1]", "result": 74, "unit": "%"}, {"measurement": "Coverage of the blue mussel Mytilus edulis, difference between the 3 treatments", "setting": "[2]", "result": "no statistically significant difference"}, {"measurement": "Reduction in growth measured as a reduction in wet weight of total growth", "setting": "[3]", "result": 64, "unit": "%"}, {"measurement": "Wet weight of the total growth on the panels compared with the two other treatments", "setting": "[3]", "result": "statistically lower growth"}, {"measurement": "Growth on surfaces by optical comparison with the control surfaces", "setting": "[4]", "result": "considerably less growth"}]}
